Where a name gives a salt, the structure may show the parent alone. Some results are limits rather than exact numbers.

For the assay, the target named is T1, untagged HECT of NEDD4 wild-type (WT) (E3 ligase) (Homo sapiens, UniProt P46934).
T1 construct: untagged HECT of NEDD4 wild-type (WT) (E3 ligase); made in house
T1 sequence (P46934 519-900 isoform P46934-4 limits assumed): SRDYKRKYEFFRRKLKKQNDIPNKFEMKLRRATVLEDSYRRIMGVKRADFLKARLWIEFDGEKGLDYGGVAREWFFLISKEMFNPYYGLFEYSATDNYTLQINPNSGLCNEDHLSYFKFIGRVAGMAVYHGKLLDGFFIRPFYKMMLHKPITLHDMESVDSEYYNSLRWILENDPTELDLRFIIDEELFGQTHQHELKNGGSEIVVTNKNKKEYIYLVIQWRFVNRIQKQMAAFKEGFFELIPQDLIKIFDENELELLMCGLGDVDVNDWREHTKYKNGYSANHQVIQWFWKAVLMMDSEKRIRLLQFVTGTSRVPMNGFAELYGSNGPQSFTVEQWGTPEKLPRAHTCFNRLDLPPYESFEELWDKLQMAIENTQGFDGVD
As to the kind of experiment: In vitro ubiquitination assay TR-FRET based (self-ubiquitination of NEDD4). The following applies: at 11 μM; pre-incubated for 1 hour; AUC of 120 minutes kinetic; read-out: percentages of inhibition (NEDD4). The format is biochemical. An excerpt: FIG. 1: TR-FRET kinetic assay performed with compound 12. […] Reactions were initiated with the addition of ATP. As labeled ubiquitin molecules become incorporated into chains they come into close proximity, resulting in energy transfer and increased signal to background detection. The activity of the enzyme is continuously and real time detected and it is expressed as % of signal/background during the time.
In order to quantitatively measure the self-ubiquitination process of the E3 HECT ligase NEDD4 the inventors employed a TR-FRET based assay. TR-FRET technology exploits the long-lasting emission of lanthanide fluorescence to interpose a short time-delay between FRET donor excitation and emission. This phenomenon enables to isolate real fluorescent signals from short-lived background emissions, thus reducing possible interference from compounds.
In the present study, elongation of the ubiqutin chain by NEDD4 is measured by adding bacterially expressed E1, His-tagged UBE2D3 (E2) and untagged HECT of NEDD4 wild-type (WT) (E3 ligase) (named in FIG. 1 as WT) enzymes to a mixture of Eu-cryptate ubiquitin, Cy5-ubiquitin and wild-type ubiquitin, combined in a ratio optimized for TR-FRET based conjugation (100×TRF-Ubiquitin Mix, SBB-TR0051). […] Bacterially expressed E1, His-tagged UBE2D3 (E2), untagged HECT NEDD4 (E3 ligase) WT and NEDD4 C/A enzymes were produced and purified as reported in E. Maspero et al. Methods Mol Biol. 1449:153-60 (2016).
Enzymatic incorporation of the labeled TRF-Ubiquitin mix into chains leads to an increase in fluorescence emission at 665 nm (emission of the acceptor Cy5-Ubiquitin, Emacceptor) and decrease at emission wavelength 620 nm (emission of the donor Eu-cryptate Ubiquitin, Emdonor).
The assay was performed in a 384-well plate format (Optiplate, Perkin Elmer, #6007290) on an automated liquid-handler (Hamilton STAR, Hamilton Robotics, Switzerland).
All compounds were dissolved in 100% DMSO and serially diluted in 96-well plates (from 100 μM to 0.005 μM).
Briefly, all reagents were thawed and kept on ice. A master mix containing E1, E2, E3 and TRF-Ubiquitin Mix (SBB-TR0051) diluted in the assay buffer (Tris-HCl pH 7.6 25 mM, NaCl 100 mM, MgCl2 5 mM and Tween 0.01%) is prepared and 50 μl/well is dispensed in a 384 well plate. 3 μl of compounds dissolved in DMSO in the above-indicated concentration range were added and pre-incubated for 1 hour. Final E1, E2 and E3 concentrations in the assay buffer (Tris-HCl pH 7.6 25 mM, NaCl 100 mM, MgCl2 5 mM and Tween 0.01%) were 30, 350 and 50 nanomolars, respectively. The reaction was initiated with the addition of ATP (22 μl of 2 mM ATP, JenaBioscience, NU-1010) and was allowed to proceed for 120 minutes, measuring fluorescence emission at 665 nm and 620 nm in real-time on an EnSpire microplate reader (Perkin Elmer).
Kinetic raw data were analyzed by Area Under the Curve (AUC) method using Prism GraphPad software.
% signal/background corresponds to the following equation: (Experimental signal−Background signal)/Background signal×100%
Experimental signal corresponds to the signal obtained by the enzymatic reaction in presence of the vehicle (DMSO) and/or the different compound concentrations. Background signal corresponds to the signal obtained by the enzymatic reaction in absence of ATP.
The relative potency of the compounds was evaluated by dose-response curves following the enzymatic reaction of HECT NEDD4 WT in real time for 120 minutes.
Percentage of inhibition is then determined by the equation: % inhibition=100×[1−(X)/(MAX)],
where MAX correspond to AUC of the vehicle (DMSO) treated enzyme, and X corresponds to the AUC of the compound treated enzyme.
Take `CCOC(=O)/C=C/CNCCCN1c2cc(Cl)ccc2C(=O)N(CCO)c2ccccc21` [Compound 47, Ethyl (E)-4-({3-[3-chloro-10-(2-hydroxyethyl)-11-oxo-10,11-dihydro-5H-dibenzo[b,e][1,4]diazepin-5-yl]propyl}amino)but-2-enoate maleate]: the inhibition at 11 µM is more than 50%.

With `CON(C)C(=O)/C=C/CN(C)CCCCN1c2cc(Cl)ccc2COc2ccccc21` [Compound 69, (E)-4-[4-(3-Chlorodibenzo[b,e][1,4]oxazepin-5(11H)-yl)butyl-methyl-amino]-N-methoxy-N-methyl-but-2-enamide], the inhibition at 11 µM was more than 50%.

Consider `CCOC(=O)/C=C/CNCCCCN1c2ccc(CO)cc2CCc2ccc(Cl)cc21` [Compound 74, Ethyl (E)-4-[4-(7-Chloro-2-hydroxymethyl-10,11-dihydro-dibenzo[b,f]azepin-5-yl)-butylamino]-but-2-enoate maleate], for which the inhibition at 11 µM was more than 50%.

For `C#CCOCCOc1ccc2c(c1)CCc1ccc(Cl)cc1N2CCCCN(C)C/C=C/C#N` [Compound 90, (E)-4-{4-[7-chloro-2-(2-prop-2-ynoxyethoxy)-10,11-dihydro-5H-dibenzo[b,f]azepin-5-yl]butyl-methyl-amino}but-2-enenitrile maleate], the inhibition at 11 µM is more than 50%.

In the case of `CCOC(=O)/C=C/CNCCCCN1c2ccc(COCCOC)cc2CCc2ccc(Cl)cc21` [Compound 76, Ethyl (E)-4-[4-(7-chloro-2-methoxyethoxymethyl-10,11-dihydro-dibenzo[b,f]azepin-5-yl)-butylamino]-but-2-enoate maleate], the inhibition at 11 µM is more than 50%.

Consider `CCOC(=O)/C=C/CNCCCN1c2cc(Cl)ccc2COc2ccccc21` [Compound 35, Ethyl (E)-4-{3-[3-chlorodibenzo[b,e][1,4]oxazepin-5(11H)-yl]propylamino}but-2-enoate maleate], for which the inhibition at 11 µM was more than 50%.

Consider `CCOC(=O)/C=C/CNCCCN1c2cc(Cl)ccc2C(=O)N(CCCO)c2ccccc21` [Compound 49, Ethyl (E)-4-({3-[3-chloro-10-(3-hydroxypropyl)-11-oxo-10,11-dihydro-5H-dibenzo[b,e][1,4]diazepin-5-yl]propyl}amino)but-2-enoate maleate], for which the inhibition at 11 µM is more than 50%.

In the case of `CN(C/C=C/C(=O)CCc1ccccc1)CCCCN1c2ccccc2CCc2ccc(Cl)cc21` [Compound 53, (E)-6-[4-(3-chloro-10,11-dihydro-5H-dibenzo[b,f]azepin-5-yl)butyl-methyl-amino]-1-phenyl-hex-4-en-3-one maleate], the inhibition at 11 µM was more than 50%.

For `CCC(=O)/C=C/CN(C)CCCCN1c2ccccc2CCc2ccc(Cl)cc21` [Compound 54, (E)-6-[4-(3-chloro-10,11-dihydro-5H-dibenzo[b,f]azepin-5-yl)butyl-methyl-amino]hex-4-en-3-one maleate], the inhibition at 11 µM is more than 50%.

For the compound `C#CCOc1ccc2c(c1)CCc1ccc(Cl)cc1N2CCCCNC/C=C/C(=O)OCC` [Compound 100, Ethyl (E)-4-[4-(7-Chloro-2-prop-2-ynyloxy-10,11-dihydro-dibenzo[b,f]azepin-5-yl)-butylamino]-but-2-enoate maleate], the inhibition at 11 µM is more than 50%.

For the compound `CCOC(=O)/C=C/CNCCCCN1c2ccccc2COc2ccc(Cl)cc21` [Compound 37, Ethyl (E)-4-{4-[7-chlorodibenzo[b,e][1,4]oxazepin-5(11H)-yl]butylamino}but-2-enoate maleate], the inhibition at 11 µM is more than 50%.

Regarding `C#CCOCCOC(=O)/C=C/CNCCCCN1c2ccccc2CCc2ccc(Cl)cc21` [Compound 92, 2-Prop-2-ynyloxy-ethyl (E)-4-[4-(3-chloro-10,11-dihydro-5H-dibenzo[b,f]azepin-5-yl)butylamino]but-2-enoate maleate], the inhibition at 11 µM was more than 50%.

With `CN(C)C(=O)/C=C/CNCCCN1c2ccccc2CCc2ccc(Cl)cc21` [Compound 20, (E)-4-{[3-(3-chloro-10,11-dihydro-5H-dibenzo[b,f]azepin-5-yl)propyl]amino}-N,N-dimethyl-but-2-enamide hydrochloride], the inhibition at 11 µM is less than 30%.

The values are drawn from US12403144B2, “HECT E3 ligase inhibitors and uses thereof” (IFOM FONDAZIONE ISTITUTO FIRC DI ONCOLOGIA MOLECOLARE, priority 2019, dated 2025).
